IC50 and inhibition data for 13 molecules are collected here from patent US20120178766A1, “FUROPYRIMIDINEDIONE DERIVATIVES AS TRPAI MODULATORS” (priority 2009, published 2012).

One assay addresses T1, rat TRPA1 (Rattus norvegicus, UniProt Q6RI86).
T1 construct: expressed in transfected cells; host or cells: CHO cells (Zeocin selection)
Nature of the assay: 45Calcium uptake assay: inhibition of AITC induced cellular uptake of radioactive calcium, rat TRPA1 expressing CHO cells. Conditions: AITC 10 μM; for IC50: class symbols; for inhibition at 10 µM: 10.0 μM compound, read-out: rat TRPA1 Percentage inhibition at 10.0 μM; for inhibition at 1 µM: read-out: rat TRPA1 Percentage inhibition. Type of assay: cell-based. As to the method:
(§1) Screening for TRPA1 Antagonist Using the ^45Calcium Uptake Assay:
(§2) The inhibition of TRPA1 receptor activation was measured as inhibition of allyl isothiocyanate (AITC) induced cellular uptake of radioactive calcium.
Test compounds were dissolved in 100% DMSO to prepare 10 mM stock and then diluted using plain medium with 0.1% BSA and 1.8 mM CaCl2 to get the desired concentration. The final concentration of DMSO in the reaction was 0.5% (v/v). […] Rat TRPA1 expressing CHO cells were grown in F-12 DMEM medium with 10% FBS, 1% penicillin-streptomycin solution, and 400 μg/ml of Zeocin. […] Cells were treated with the test compounds for 10 minutes followed by the addition of AITC at a final concentration of 30 μM (for human TRPA1) and/or 10 μM (for rat TRPA1) and 5 μCi/ml ^45Ca^+2 for 3 minutes. Cells were washed and lysed using a buffer containing 1% Triton X-100, 0.1% deoxycholate and 0.1% SDS. Radioactivity in the lysate was measured in a Packard TopCount after addition of liquid scintillant.
(§3) Concentration response curves were plotted as a % of maximal response obtained in the absence of test antagonist. IC50 values can be calculated from concentration response curve by nonlinear regression analysis using GraphPad PRISM software.

Another assay has as its target T2, human TRPA1 (Homo sapiens, UniProt O75762).
T2 construct: expressed in transfected cells; host or cells: CHO cells (G-418 selection)
The assay can be described thus: 45Calcium uptake assay: inhibition of AITC induced cellular uptake of radioactive calcium, human TRPA1 expressing CHO cells. Type of assay: cell-based. Particulars: AITC 30 μM; for inhibition at 1 µM: 1.0 μM compound, read-out: human TRPA1 Percentage inhibition at 1.0 μM; for inhibition at 10 µM: 10.0 μM compound, read-out: human TRPA1 Percentage inhibition at 10.0 μM; for IC50: class symbols.
From the text: The illustrative examples of the present invention are screened for TRPA1 activity according to a modified procedure described in (a) Tóth, A. et al. Life Sciences, 2003, 73, 487-498. (b) McNamara C, R. et al, Proc. Natl. Acad. Sci. U.S.A., 2007, 104, 13525-13530. The screening of the compounds can be carried out by other methods and procedures known to persons skilled in the art.
as §1, §2
Test compounds were dissolved in 100% DMSO to prepare 10 mM stock and then diluted using plain medium with 0.1% BSA and 1.8 mM CaCl2 to get the desired concentration. The final concentration of DMSO in the reaction was 0.5% (v/v). Human TRPA1 expressing CHO cells were grown in F-12 DMEM medium with 10% FBS, 1% penicillin-streptomycin solution, and 400 μg/ml of G-418. Rat TRPA1 expressing CHO cells were grown in F-12 DMEM medium with 10% FBS, 1% penicillin-streptomycin solution, and 400 μg/ml of Zeocin. Cells were seeded 24 h prior to the assay in 96 well plates so as to get ˜50,000 cells per well on the day of experiment. Cells were treated with the test compounds for 10 minutes followed by the addition of AITC at a final concentration of 30 μM (for human TRPA1) and/or 10 μM (for rat TRPA1) and 5 μCi/ml ^45Ca^+2 for 3 minutes. Cells were washed and lysed using a buffer containing 1% Triton X-100, 0.1% deoxycholate and 0.1% SDS. Radioactivity in the lysate was measured in a Packard TopCount after addition of liquid scintillant. (Toth et al, Life Sciences (2003) 73, 487-498; McNamara C R et al, Proceedings of the National Academy of Sciences, (2007) 104, 13525-13530).
as §3

T1 sequence (Q6RI86 whole entry): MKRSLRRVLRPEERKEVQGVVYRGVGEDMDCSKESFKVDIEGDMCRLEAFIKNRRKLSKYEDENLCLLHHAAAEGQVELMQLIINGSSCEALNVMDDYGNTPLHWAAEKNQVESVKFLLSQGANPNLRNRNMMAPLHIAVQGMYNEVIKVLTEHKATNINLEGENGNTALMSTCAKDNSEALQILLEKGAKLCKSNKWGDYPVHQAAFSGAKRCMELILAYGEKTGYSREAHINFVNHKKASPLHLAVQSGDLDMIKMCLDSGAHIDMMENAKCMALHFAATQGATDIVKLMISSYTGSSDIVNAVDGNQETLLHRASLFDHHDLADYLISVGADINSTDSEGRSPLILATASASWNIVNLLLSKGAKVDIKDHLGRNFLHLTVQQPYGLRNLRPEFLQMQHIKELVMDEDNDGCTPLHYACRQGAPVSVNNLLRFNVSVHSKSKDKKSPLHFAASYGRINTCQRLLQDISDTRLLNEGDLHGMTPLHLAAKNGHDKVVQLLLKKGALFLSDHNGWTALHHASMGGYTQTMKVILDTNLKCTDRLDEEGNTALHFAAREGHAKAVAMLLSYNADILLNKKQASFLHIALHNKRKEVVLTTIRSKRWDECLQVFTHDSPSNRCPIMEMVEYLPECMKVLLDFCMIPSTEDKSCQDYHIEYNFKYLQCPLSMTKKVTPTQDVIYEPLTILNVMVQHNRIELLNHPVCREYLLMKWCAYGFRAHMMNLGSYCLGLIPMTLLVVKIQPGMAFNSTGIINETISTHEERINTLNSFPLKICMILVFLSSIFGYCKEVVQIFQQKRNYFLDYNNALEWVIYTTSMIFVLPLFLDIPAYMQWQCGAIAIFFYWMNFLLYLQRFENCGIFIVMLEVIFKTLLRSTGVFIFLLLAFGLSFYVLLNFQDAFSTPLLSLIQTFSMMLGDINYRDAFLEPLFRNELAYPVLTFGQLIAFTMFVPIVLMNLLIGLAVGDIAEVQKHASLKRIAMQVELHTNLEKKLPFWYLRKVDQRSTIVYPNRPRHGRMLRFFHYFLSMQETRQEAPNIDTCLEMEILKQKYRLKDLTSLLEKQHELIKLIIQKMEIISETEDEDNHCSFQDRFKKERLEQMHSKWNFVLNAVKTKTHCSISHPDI
T2 sequence (O75762 whole entry): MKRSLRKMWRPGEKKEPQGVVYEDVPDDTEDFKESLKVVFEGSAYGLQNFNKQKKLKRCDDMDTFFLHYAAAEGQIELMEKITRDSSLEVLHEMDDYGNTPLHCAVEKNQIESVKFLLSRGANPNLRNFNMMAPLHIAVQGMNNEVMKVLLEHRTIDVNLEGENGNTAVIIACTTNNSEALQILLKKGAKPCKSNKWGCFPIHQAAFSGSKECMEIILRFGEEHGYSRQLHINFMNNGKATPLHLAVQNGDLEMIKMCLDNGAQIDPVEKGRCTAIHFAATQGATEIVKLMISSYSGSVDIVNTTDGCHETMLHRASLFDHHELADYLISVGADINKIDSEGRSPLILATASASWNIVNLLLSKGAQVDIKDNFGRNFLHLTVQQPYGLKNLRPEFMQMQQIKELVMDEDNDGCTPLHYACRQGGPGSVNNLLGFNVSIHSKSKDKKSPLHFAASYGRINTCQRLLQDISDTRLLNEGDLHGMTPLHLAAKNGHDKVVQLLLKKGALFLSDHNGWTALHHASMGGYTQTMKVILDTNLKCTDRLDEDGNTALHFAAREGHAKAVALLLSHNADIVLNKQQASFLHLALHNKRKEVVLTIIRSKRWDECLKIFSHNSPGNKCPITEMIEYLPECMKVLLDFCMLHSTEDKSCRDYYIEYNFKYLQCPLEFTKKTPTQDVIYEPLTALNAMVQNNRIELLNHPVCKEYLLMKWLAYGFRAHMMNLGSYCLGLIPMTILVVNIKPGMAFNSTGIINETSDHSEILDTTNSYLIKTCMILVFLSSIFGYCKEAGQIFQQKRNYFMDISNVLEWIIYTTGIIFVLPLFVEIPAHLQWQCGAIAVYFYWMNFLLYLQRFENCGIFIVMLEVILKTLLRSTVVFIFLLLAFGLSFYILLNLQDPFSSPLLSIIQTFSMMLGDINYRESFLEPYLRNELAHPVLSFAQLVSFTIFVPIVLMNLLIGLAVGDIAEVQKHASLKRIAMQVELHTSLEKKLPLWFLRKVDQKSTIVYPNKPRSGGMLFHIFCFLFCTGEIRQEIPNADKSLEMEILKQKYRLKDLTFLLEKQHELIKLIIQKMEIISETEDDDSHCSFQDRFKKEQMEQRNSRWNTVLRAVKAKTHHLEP

Broadly, the IC50 is the concentration that inhibits the measured activity by half. For orientation: inhibition means the share of the control response that was lost under treatment. For the molecule `Cn1c(=O)c2c(CC(=O)Nc3nc(-c4ccc(Cl)c(Cl)c4)cs3)coc2n(C)c1=O` [Example 13, N1-[4-(3,4-Dichlorophenyl)-1,3-thiazol-2-yl]-2-(1,3-dimethyl-2,4-dioxo-1,2,3,4-tetrahydrofuro[2,3-d]pyrimidin-5-yl)acetamide], the IC50 on rat TRPA1 was above 0.1 µM. Moreover, on human TRPA1, the inhibition at 1 µM was determined as 98.5%, the inhibition at 10 µM was 99.4% and the IC50 is below 0.05 µM.

For the molecule `Cn1c(=O)c2c(CC(=O)Nc3nc(-c4ccc(C(F)(F)F)c(F)c4)cs3)coc2n(C)c1=O` [Example 14, N1-{4-[3-Fluoro-4-(trifluoromethyl)phenyl]-1,3-thiazol-2-yl}-2-(1,3-dimethyl-2,4-dioxo-1,2,3,4-tetrahydrofuro[2,3-d]pyrimidin-5-yl)acetamide], at rat TRPA1, the inhibition at 10 µM amounted to 100%, the inhibition at 1 µM is 100% and the IC50 is below 0.05 µM. Moreover, on human TRPA1, the inhibition at 1 µM amounted to 99.4%, the inhibition at 10 µM came out at 99.7% and the half-maximal inhibitory concentration (IC50) is below 0.05 µM.

As for `Cn1c(=O)c2c(CC(=O)Nc3nc(-c4ccc(F)c(C(F)(F)F)c4)cs3)coc2n(C)c1=O` [Example 15, N1-{4-[4-Fluoro-3-(trifluoromethyl)phenyl]-1,3-thiazol-2-yl}-2-(1,3-dimethyl-2,4-dioxo-1,2,3,4-tetrahydrofuro[2,3-d]pyrimidin-5-yl)acetamide], at rat TRPA1, the inhibition at 10 µM came to 99%, the inhibition at 1 µM was 100% and the IC50 was below 0.05 µM. At human TRPA1, the inhibition at 1 µM amounted to 99.9%, the inhibition at 10 µM stood at 99.8% and the half-maximal inhibitory concentration (IC50) is below 0.05 µM.

With `Cn1c(=O)c2c(CC(=O)Nc3nc(-c4ccc(F)c(OC(F)(F)F)c4)cs3)coc2n(C)c1=O` [Example 16, N1-{4-[4-Fluoro-3-(trifluoromethoxy)phenyl]-1,3-thiazol-2-yl}-2-(1,3-dimethyl-2,4-dioxo-1,2,3,4-tetrahydrofuro[2,3-d]pyrimidin-5-yl)acetamide], on rat TRPA1, the inhibition at 10 µM worked out at 98.6%, the inhibition at 1 µM came to 100% and the IC50 is below 0.05 µM. At human TRPA1, the inhibition at 1 µM was 98.5%, the inhibition at 10 µM is 99.2% and the IC50 was below 0.05 µM.

As to `Cn1c(=O)c2c(CC(=O)Nc3nc(-c4ccc(OC(F)(F)F)c(F)c4)cs3)coc2n(C)c1=O` [Example 17, N1-{4-[3-Fluoro-4-(trifluoromethoxy)phenyl]-1,3-thiazol-2-yl}-2-(1,3-dimethyl-2,4-dioxo-1,2,3,4-tetrahydrofuro[2,3-d]pyrimidin-5-yl)acetamide], on rat TRPA1, the inhibition at 10 µM is 99.8%, the inhibition at 1 µM was determined as 97.7% and the half-inhibitory concentration (IC50) was in the range of 0.05 to 0.1 µM. In addition, on human TRPA1, the inhibition at 1 µM came out at 99.9%, the inhibition at 10 µM is 100% and the IC50 is below 0.05 µM.

On to `Cn1c(=O)c2c(CC(=O)Nc3nc(-c4ccc(Cl)c(C(F)(F)F)c4)cs3)coc2n(C)c1=O` [Example 18, N1-{4-[4-Chloro-3-(trifluoromethyl)phenyl]-1,3-thiazol-2-yl}-2-(1,3-dimethyl-2,4-dioxo-1,2,3,4-tetrahydrofuro[2,3-d]pyrimidin-5-yl)acetamide], for which, at rat TRPA1, the inhibition at 10 µM was determined as 94.1%, the inhibition at 1 µM turned out to be 99.9% and the IC50 lay within 0.05 to 0.1 µM. On human TRPA1, the inhibition at 1 µM amounted to 99.9%, the inhibition at 10 µM was 100% and the IC50 was below 0.05 µM.

On to `Cn1c(=O)c2c(CC(=O)Nc3nc(-c4ccc(Cl)c(OC(F)(F)F)c4)cs3)coc2n(C)c1=O` [Example 19, N1-{4-[4-Chloro-3-(trifluoromethoxy)phenyl]-1,3-thiazol-2-yl]-2-(1,3-dimethyl-2,4-dioxo-1,2,3,4-tetrahydrofuro[2,3-d]pyrimidin-5-yl)acetamide], for which, on rat TRPA1, the inhibition at 10 µM stood at 98.2%, the inhibition at 1 µM is 98.9% and the half-maximal inhibitory concentration (IC50) lay within 0.05 to 0.1 µM. Also, at human TRPA1, the inhibition at 1 µM worked out at 99.9%, the inhibition at 10 µM was 100% and the half-maximal inhibitory concentration (IC50) was below 0.05 µM.

On to `Cn1c(=O)c2c(CC(=O)Nc3nc(-c4cccc(C(F)(F)F)c4F)cs3)coc2n(C)c1=O` [Example 20, N1-{4-[2-Fluoro-3-(trifluoromethyl)phenyl]-1,3-thiazol-2-yl}-2-(1,3-dimethyl-2,4-dioxo-1,2,3,4-tetrahydrofuro[2,3-d]pyrimidin-5-yl)acetamide], for which, at rat TRPA1, the inhibition at 10 µM was 99.8%, the inhibition at 1 µM was 96.8% and the IC50 is below 0.05 µM. For the same molecule, at human TRPA1, the inhibition at 1 µM was 98.5%, the inhibition at 10 µM was determined as 97.5% and the IC50 was below 0.05 µM.

In the case of `Cn1c(=O)c2c(CC(=O)Nc3nc(-c4cc(F)cc(C(F)(F)F)c4)cs3)coc2n(C)c1=O` [Example 21, N1-{4-[3-Fluoro-5-(trifluoromethyl)phenyl]-1,3-thiazol-2-yl}-2-(1,3-dimethyl-2,4-dioxo-1,2,3,4-tetrahydrofuro[2,3-d]pyrimidin-5-yl)acetamide], at rat TRPA1, the inhibition at 10 µM is 99.9%, the inhibition at 1 µM stood at 98.9% and the IC50 was below 0.05 µM. Moreover, at human TRPA1, the inhibition at 1 µM worked out at 99.8%, the inhibition at 10 µM is 99.8% and the concentration for half-maximal inhibition (IC50) is below 0.05 µM.

For `Cn1c(=O)c2c(CC(=O)Nc3nc(-c4ccc(C(F)(F)F)cc4F)cs3)coc2n(C)c1=O` [Example 22, N1-{4-[2-Fluoro-4-(trifluoromethyl)phenyl]-1,3-thiazol-2-yl}-2-(1,3-dimethyl-2,4-dioxo-1,2,3,4-tetrahydrofuro[2,3-d]pyrimidin-5-yl)acetamide], on rat TRPA1, the inhibition at 10 µM turned out to be 100% and the inhibition at 1 µM is 100%. At human TRPA1, the inhibition at 1 µM came to 99.3%, the inhibition at 10 µM turned out to be 98.5% and the IC50 is below 0.05 µM.

As for `Cn1c(=O)c2c(CC(=O)Nc3nc(-c4ccc(OC(F)F)c(F)c4)cs3)coc2n(C)c1=O` [Example 23, N1-[4-(3-Fluoro-4-difluoromethoxyphenyl)-1,3-thiazol-2-yl]-2-(1,3-dimethyl-2,4-dioxo-1,2,3,4-tetrahydrofuro[2,3-d]pyrimidin-5-yl)acetamide], on rat TRPA1, the inhibition at 10 µM was 95.5%, the inhibition at 1 µM came out at 92.6% and the IC50 is above 0.1 µM. Moreover, on human TRPA1, the inhibition at 1 µM was determined as 96.3%, the inhibition at 10 µM turned out to be 99% and the IC50 is below 0.05 µM.

As to `Cn1c(=O)c2c(CC(=O)Nc3nc(-c4ccc(OC(F)F)c(Cl)c4)cs3)coc2n(C)c1=O` [Example 24, N1-[4-(3-Chloro-4-difluoromethoxyphenyl)-1,3-thiazol-2-yl]-2-(1,3-dimethyl-2,4-dioxo-1,2,3,4-tetrahydrofuro[2,3-d]pyrimidin-5-yl)acetamide], at rat TRPA1, the inhibition at 10 µM amounted to 99.6%, the inhibition at 1 µM was determined as 100% and the IC50 was above 0.1 µM. Moreover, on human TRPA1, the inhibition at 1 µM came out at 97.4%, the inhibition at 10 µM stood at 99.8% and the IC50 was below 0.05 µM.

`Cn1c(=O)c2c(CC(=O)Nc3nc(-c4ccc(OCC(C)(C)C)c(F)c4)cs3)coc2n(C)c1=O` [Example 26, N1-{4-[4-(2,2-Dimethylpropoxy)-3-fluorophenyl]-1,3-thiazol-2-yl}-2-(1,3-dimethyl-2,4-dioxo-1,2,3,4-tetrahydrofuro[2,3-d]pyrimidin-5-yl)acetamide]: on rat TRPA1, the inhibition at 10 µM turned out to be 99.9% and the inhibition at 1 µM was found to be 98.6%. On human TRPA1, the inhibition at 1 µM came to 97.6%, the inhibition at 10 µM was determined as 99.3% and the IC50 was below 0.05 µM.
